Measurements from patent US20250049806A1, “PHARMACEUTICAL COMPOSITION FOR PROVIDING TREATMENT FOR OR PREVENTING ALPORT SYNDROME” (UBE Corporation, priority 2021, published 2025).

Assay: Transcellular transport test using Caco2 cell
Assay type: in vitro ADME
Conditions: human, Caco-2, apical-to-basolateral (A-to-B), pH=7.4, 10 µM compound
Method: Caco2 cells (purchased from ATCC) were cultured in DMEM medium (Thermo Fisher Scientific, Inc., 11965) containing 10% FBS (Thermo Fisher Scientific, Inc., 10082) and 1% penicillin/streptomycin/amphotericin B (Thermo Fisher Scientific, Inc., 15240). A transcellular transport test was carried out in accordance with MultiScreen Caco2 Drug Transport Assembly in a 96-well system (Application Note AN1727EN, MultiScreen Caco-2 Assay System, Merck) by partially modifying it. The Caco2 cells were inoculated at a cell density of 4×10^4 cells/well onto a micropore polycarbonate insert of a 96-well plate (Merck, Millcell-96 culture insert plate 0.4 μm pore size, well membrane area=0.11 cm^2, PSHT004S5) and cultured for 20 to 22 days, and the resulting monolayer was used in the transcellular transport test. The medium of the inoculated cells was replaced with a fresh one every 3 to 4 days.
Apical-to-basolateral (A-to-B) transport in the Caco2 cell monolayer membrane was performed by using HBSS (Thermo Fisher Scientific, Inc., 14025) medium (pH=7.4) containing 20 mM HEPES (Thermo Fisher Scientific, Inc., 15630), and adding HEPES-containing HBSS medium containing 10 µM compound (a 10 mM solution of the compound in DMSO was added at a 1000-fold dilution; final DMSO concentration: 0.1%) at 75 μL/well to the apical side and HEPES-containing HBSS medium supplemented with no compound at 250 μL/well to the basolateral side, followed by culture at 37° C. for 90 minutes. After culture, a 100 μL aliquot was collected from the basolateral side, and the concentration of a permeated compound was measured by LC-MS/MS under measurement conditions mentioned later. Papp (apparent permeability; cm/sec) was calculated from the determined concentration. Papp was determined according to the expression given below by calculating the slope (dA/dt; nmol/sec) of a straight line drawn between two points 0 minutes and zero amount of the compound in a graph plotted with an assay time (90 min) on the abscissa against the amount of the compound in the solution on the permeated side on the ordinate. As for an assay concentration, the concentration in the compound in the HEPES-containing HBSS medium containing the added compound was measured by UV-HPLC under measurement conditions mentioned later.
C0: assay concentration, S: plate membrane area=0.11 cm^2
• LC: LC20 or LC30 HPLC system manufactured by Shimadzu Corp. • Column: Phenomenex Kinetex C18 (50 mm×2.1 mm, 2.6 μm) • Column temperature: 40° C. • Flow rate: 0.3 mL/min • Mobile phase A: 0.1% aqueous formic acid solution • Mobile phase B: 0.1% formic acid, 50% acetonitrile/methanol mixed solution • Gradient: 0-2 min; A/B=90/10 to 10/90, 2-3 min; A/B=10/90, 3-3.01 min; A/B=10/90 to 90/10 • MS: Q-Trap3200 manufactured by AB Sciex Pte. Ltd. • Ionization: ESI • Mode: Positive
• LC: LC20 or LC30 HPLC system manufactured by Shimadzu Corp. • Column: Phenomenex Kinetex C18 (100 mm×2.1 mm, 2.6 μm) • Column temperature: 40° C. • Flow rate: 0.25 mL/min • Mobile phase A: 0.1% aqueous formic acid solution • Mobile phase B: 0.1% formic acid, 50% acetonitrile/methanol mixed solution • Gradient: 0-3 min; A/B=90/10, 3-11 min; A/B=90/10 to 5/95, 11-15 min; A/B=5/95, 15-15.1 min; A/B=5/95 to 90/10 • UV detector: photodiode array detector
A: Papp>1×10^−6 (cm/sec), B: 1×10^−6 (cm/sec)≥Papp>5×10^−7 (cm/sec), C: 5×10^−7 (cm/sec)≥Papp>1×10^−7 (cm/sec), or D: Papp≤1×10^−7 (cm/sec).
`O=C(O)C[C@H](NC(=O)CNC(=O)c1cc(NC2=NCC(F)CN2)c2cn[nH]c2c1)c1cccc(C(F)(F)F)c1Cl` (stereo partly drawn) [10-(b), (3S)-3-(2-chloro-3-(trifluoromethyl)phenyl)-3-(2-(4-((5-fluoro-1,4,5,6-tetrahydropyrimidin-2-yl)amino)-1H-indazole-6-carboxamido)acetamido)propanoic acid] showed a Papp A→B at 90 min, 10 µM of over 10 nm/s. Work on `O=C(O)C[C@H](NC(=O)CNC(=O)c1cc(NC2=NCC(F)CN2)c2cn[nH]c2c1)c1cc(OC(F)F)cc(-n2cccn2)c1` (stereo partly drawn) [29-(b), (3S)-3-(3-(difluoromethoxy)-5-(1H-pyrazol-1-yl)phenyl)-3-(2-(4-((5-fluoro-1,4,5,6-tetrahydropyrimidin-2-yl)amino)-1H-indazole-6-carboxamido)acetamido)propanoic acid] yielded a Papp A→B at 90 min, 10 µM of 1 to 5 nm/s. `O=C(O)C[C@H](NC(=O)CNC(=O)c1cc(NC2=NCC(F)CN2)c2cn[nH]c2c1)c1cccc(C(F)(F)F)c1` (stereo partly drawn) [35-(b), (3S)-3-(2-(4-((5-fluoro-1,4,5,6-tetrahydropyrimidin-2-yl)amino)-1H-indazole-6-carboxamido)acetamido)-3-(3-(trifluoromethyl)phenyl)propanoic acid] gave a Papp A→B at 90 min, 10 µM of over 10 nm/s. In the case of `O=C(O)C[C@H](NC(=O)CNC(=O)c1cc(NC2=NCC(F)CN2)c2cn[nH]c2c1)c1cccc(Br)c1` (stereo partly drawn) [42-(b), (3S)-3-(3-bromophenyl)-3-(2-(4-((5-fluoro-1,4,5,6-tetrahydropyrimidin-2-yl)amino)-1H-indazole-6-carboxamido)acetamido)propanoic acid], the Papp A→B at 90 min, 10 µM is reported as over 10 nm/s. For `O=C(O)C[C@H](NC(=O)CNC(=O)c1cc(NC2=NCC(F)CN2)c2cn[nH]c2c1)c1cccc(C2CC2)c1` (stereo partly drawn) [39-(b), (3S)-3-(3-cyclopropylphenyl)-3-(2-(4-((5-fluoro-1,4,5,6-tetrahydropyrimidin-2-yl)amino)-1H-indazole-6-carboxamido)acetamido)propanoic acid], the Papp A→B at 90 min, 10 µM was over 10 nm/s. Work on `Cc1cc([C@H](CC(=O)O)NC(=O)CNC(=O)c2cc(NC3=NCC(F)CN3)c3cn[nH]c3c2)cc(C(F)(F)F)c1` (stereo partly drawn) [4-(b), (3S)-3-(2-(4-((5-fluoro-1,4,5,6-tetrahydropyrimidin-2-yl)amino)-1H-indazole-6-carboxamido)acetamido)-3-(3-methyl-5-(trifluoromethyl)phenyl)propanoic acid] yielded a Papp A→B at 90 min, 10 µM of over 10 nm/s. `O=C(O)C[C@H](NC(=O)CNC(=O)c1cc(NC2=NCC(F)CN2)c2cn[nH]c2c1)c1ccc(F)c(OC(F)(F)F)c1` (stereo partly drawn) [34-(b), (3S)-3-(2-(4-((5-fluoro-1,4,5,6-tetrahydropyrimidin-2-yl)amino)-1H-indazole-6-carboxamido)acetamido)-3-(4-fluoro-3-(trifluoromethoxy)phenyl)propanoic acid] showed a Papp A→B at 90 min, 10 µM of over 10 nm/s. Compound `O=C(O)C[C@H](NC(=O)CNC(=O)c1cc(NC2=NCC(F)CN2)c2cn[nH]c2c1)c1cc(F)cc(C(F)(F)F)c1` (stereo partly drawn) [6-(b), (3S)-3-(2-(4-((5-fluoro-1,4,5,6-tetrahydropyrimidin-2-yl)amino)-1H-indazole-6-carboxamido)acetamido)-3-(3-fluoro-5-(trifluoromethyl)phenyl)propanoic acid] has a Papp A→B at 90 min, 10 µM of over 10 nm/s. For `O=C(O)C[C@H](NC(=O)CNC(=O)c1cc(NC2=NCC(F)CN2)c2cn[nH]c2c1)c1cccc(OC(F)F)c1` (stereo partly drawn) [37-(b), (3S)-3-(3-(difluoromethoxy)phenyl)-3-(2-(4-((5-fluoro-1,4,5,6-tetrahydropyrimidin-2-yl)amino)-1H-indazole-6-carboxamido)acetamido)propanoic acid], the Papp A→B at 90 min, 10 µM was over 10 nm/s. `O=C(O)C[C@H](NC(=O)CNC(=O)c1cc(NC2=NCC(F)CN2)c2cn[nH]c2c1)c1cccc(N2CCOCC2)c1` (stereo partly drawn) [45-(b), (3S)-3-(2-(4-((5-fluoro-1,4,5,6-tetrahydropyrimidin-2-yl)amino)-1H-indazole-6-carboxamido)acetamido)-3-(3-morpholinophenyl)propanoic acid] showed a Papp A→B at 90 min, 10 µM of 5 to 10 nm/s. Compound `O=C(O)C[C@H](NC(=O)CNC(=O)c1cc(NC2=NCC(F)CN2)c2cn[nH]c2c1)c1cc(-n2cccn2)cc(C(F)(F)F)c1` (stereo partly drawn) [8-(b), (3S)-3-(3-(1H-pyrazol-1-yl)-5-(trifluoromethyl)phenyl)-3-(2-(4-((5-fluoro-1,4,5,6-tetrahydropyrimidin-2-yl)amino)-1H-indazole-6-carboxamido)acetamido)propanoic acid] has a Papp A→B at 90 min, 10 µM of 5 to 10 nm/s. In the case of `O=C(O)C[C@H](NC(=O)CNC(=O)c1cc(NC2=NCC(F)CN2)c2cn[nH]c2c1)c1cc(Br)cc(OC(F)(F)F)c1` (stereo partly drawn) [32-(b), (3S)-3-(3-bromo-5-(trifluoromethoxy)phenyl)-3-(2-(4-((5-fluoro-1,4,5,6-tetrahydropyrimidin-2-yl)amino)-1H-indazole-6-carboxamido)acetamido)propanoic acid], the Papp A→B at 90 min, 10 µM is reported as over 10 nm/s. Compound `O=C(O)C[C@H](NC(=O)CNC(=O)c1cc(NC2=NCC(F)CN2)c2cn[nH]c2c1)c1cc(OC(F)F)cc(OC(F)F)c1` (stereo partly drawn) [30-(b), (3S)-3-(3,5-bis(difluoromethoxy)phenyl)-3-(2-(4-((5-fluoro-1,4,5,6-tetrahydropyrimidin-2-yl)amino)-1H-indazole-6-carboxamido)acetamido)propanoic acid] has a Papp A→B at 90 min, 10 µM of 5 to 10 nm/s. Compound `O=C(O)C[C@H](NC(=O)CNC(=O)c1cc(NC2=NCC(F)CN2)cc2[nH]ncc12)c1ccc(F)c(C(F)(F)F)c1` (stereo partly drawn) [55-(b), (3S)-3-(2-(6-((5-fluoro-1,4,5,6-tetrahydropyrimidin-2-yl)amino)-1H-indazole-4-carboxamido)acetamido)-3-(4-fluoro-3-(trifluoromethyl)phenyl)propanoic acid] has a Papp A→B at 90 min, 10 µM of 1 to 5 nm/s. `O=C(O)C[C@H](NC(=O)CNC(=O)c1cc(NC2=NCC(F)CN2)c2cn[nH]c2c1)c1ccc(C(F)(F)F)cc1` (stereo partly drawn) [47-(b), (3S)-3-(2-(4-((5-fluoro-1,4,5,6-tetrahydropyrimidin-2-yl)amino)-1H-indazole-6-carboxamido)acetamido)-3-(4-(trifluoromethyl)phenyl)propanoic acid] showed a Papp A→B at 90 min, 10 µM of over 10 nm/s. `COc1cc([C@H](CC(=O)O)NC(=O)CNC(=O)c2cc(NC3=NCC(F)CN3)c3cn[nH]c3c2)cc(C(F)(F)F)c1` (stereo partly drawn) [5-(b), (3S)-3-(2-(4-((5-fluoro-1,4,5,6-tetrahydropyrimidin-2-yl)amino)-1H-indazole-6-carboxamido)acetamido)-3-(3-methoxy-5-(trifluoromethyl)phenyl)propanoic acid] gave a Papp A→B at 90 min, 10 µM of 5 to 10 nm/s. For `O=C(O)C[C@H](NC(=O)CNC(=O)c1cc(NC2=NCC(F)CN2)c2cn[nH]c2c1)c1cc(C(F)(F)F)ccc1Cl` (stereo partly drawn) [12-(b), (3S)-3-(2-chloro-5-(trifluoromethyl)phenyl)-3-(2-(4-((5-fluoro-1,4,5,6-tetrahydropyrimidin-2-yl)amino)-1H-indazole-6-carboxamido)acetamido)propanoic acid], the Papp A→B at 90 min, 10 µM was over 10 nm/s. With `O=C(O)C[C@H](NC(=O)CNC(=O)c1cc(NC2=NCC(F)CN2)c2cn[nH]c2c1)c1ccc(F)c(C(F)(F)F)c1` (stereo partly drawn) [13-(b), (3S)-3-(2-(4-((5-fluoro-1,4,5,6-tetrahydropyrimidin-2-yl)amino)-1H-indazole-6-carboxamido)acetamido)-3-(4-fluoro-3-(trifluoromethyl)phenyl)propanoic acid] the Papp A→B at 90 min, 10 µM was over 10 nm/s.
